Patent publication US20110015068A1, “Herbicidal Compositions Comprising Pyroxasulfone V” (BASF SE, priority 2008, published 2011)

Legend:
Type in all cases: in vivo
[1] = system: Lolium multiflorum; test: post-emergence greenhouse test, LOLMU; settings: 12.5 g ai/ha, 20 DAT, Table 4
Excerpt: (§1) For the post-emergence treatment, the test plants were first grown to a height of 3 to 20 cm, depending on the plant habit, and only then treated. Here, the herbicidal compositions were suspended or emulsified in water as distribution medium and sprayed using finely distributing nozzles.
(§2) The respective herbicides A and/or safener were formulated as 10% by weight strength suspension concentrate and introduced to the spray liquor with the amount of solvent system used for applying the active compound. Herbicide B and/or safener were used as commercially available formulations and introduced to the spray liquor with the amount of solvent system used for applying the active compound. In the examples, the solvent used was water.
(§3) The test period extended over 21 days. During this time, the plants were tended, and their response to the treatments with active compound was evaluated.
(§4) The evaluation for the damage caused by the chemical compositions was carried out using a scale from 0 to 100%, compared to the untreated control plants. Here, 0 means no damage and 100 means complete destruction of the plants.

[2] = system: Galium aparine; test: post-emergence greenhouse test, GALAP
Excerpt: as §1, §2, §3, §4

[3] = system: Digitaria sanguinalis; test: post-emergence greenhouse test, DIGSA; settings: 3.13 g ai/ha, 20 DAT, Table 4
Excerpt: as §1, §2, §3, §4

[4] = system: Chenopodium album; test: post-emergence greenhouse test, CHEAL
Excerpt: as §1, §2, §3, §4

[5] = system: Setaria faberii; test: post-emergence greenhouse test, SETFA; settings: 12.5 g ai/ha, 20 DAT, Table 4
Excerpt: as §1, §2, §3, §4

[6] = system: Matricaria inermis; test: post-emergence greenhouse test, MATIN; settings: 6.25 g ai/ha, 20 DAT, Table 4
Excerpt: as §1, §2, §3, §4

[7] = system: Alopecurus myosuroides; test: post-emergence greenhouse test, ALOMY
Excerpt: as §1, §2, §3, §4

[8] = system: Setaria faberii; test: pre-emergence greenhouse test, SETFA
Excerpt: (§5) For the pre-emergence treatment, directly after sowing the active compounds, which had been suspended or emulsified in water, were applied by means of finely distributed nozzles. The containers were irrigated gently to promote germination and growth and subsequently covered with transparent plastic hoods until plant had rooted. This cover caused uniform germination of the tests plants, unless this was adversely affected by active compounds.
as §2, §3, §4

[9] = system: Bromus inermis; test: pre-emergence greenhouse test, BROIN; settings: 3.13 g ai/ha
Excerpt: as §5, §2, §3, §4

[10] = system: Sorghum halepense; test: pre-emergence greenhouse test, SORHA; settings: 3.13 g ai/ha
Excerpt: as §5, §2, §3, §4

[11] = system: Setaria italica; test: post-emergence greenhouse test, SETIT
Excerpt: as §1, §2, §3, §4

[12] = system: Chenopodium album; test: pre-emergence greenhouse test, CHEAL; settings: 3.13 g ai/ha
Excerpt: as §5, §2, §3, §4

[13] = system: Kochia scoparia; test: pre-emergence greenhouse test, KCHSC; settings: 12.5 g ai/ha
Excerpt: as §5, §2, §3, §4

[14] = system: Matricaria inermis; test: pre-emergence greenhouse test, MATIN; settings: 6.25 g ai/ha
Excerpt: as §5, §2, §3, §4

[15] = system: Ambrosia artemisifolia; test: pre-emergence greenhouse test, AMBEL; settings: 12.5 g ai/ha
Excerpt: as §5, §2, §3, §4

[16] = system: Polygonum convolvulus; test: post-emergence greenhouse test, POLCO
Excerpt: as §1, §2, §3, §4

[17] = system: Alopecurus myosuroides; test: pre-emergence greenhouse test, ALOMY; settings: 12.5 g ai/ha
Excerpt: as §5, §2, §3, §4

[18] = system: Galium aparine; test: pre-emergence greenhouse test, GALAP; settings: 3.13 g ai/ha
Excerpt: as §5, §2, §3, §4

[19] = system: Kochia scoparia; test: post-emergence greenhouse test, KCHSC; settings: 6.25 g ai/ha
Excerpt: as §1, §2, §3, §4

[20] = system: Setaria italica; test: pre-emergence greenhouse test, SETIT; settings: 25 g ai/ha
Excerpt: as §5, §2, §3, §4

[21] = system: Xanthium strumarium; test: post-emergence greenhouse test, XANST
Excerpt: as §1, §2, §3, §4

[22] = system: Solanum nigrum; test: post-emergence greenhouse test, SOLNI; settings: 13 g ai/ha
Excerpt: as §1, §2, §3, §4

[23] = system: Setaria lutescens; test: post-emergence greenhouse test, SETLU; settings: 1.6 g ai/ha
Excerpt: as §1, §2, §3, §4

[24] = system: Sorghum halepense; test: post-emergence greenhouse test, SORHA; settings: 1.6 g ai/ha
Excerpt: as §1, §2, §3, §4

[25] = system: Ipomoea purpurea; test: pre-emergence greenhouse test, PHBPU
Excerpt: as §5, §2, §3, §4

[26] = system: Echinochloa crus-galli; test: post-emergence greenhouse test, ECHCG
Excerpt: as §1, §2, §3, §4

C#CCN1C(=O)C(F)(F)Oc2cc(F)c(-n3c(=O)n(C)c(=S)n(C)c3=O)cc21 [compound V-1]
observed activity in % destruction [1]: 85% | observed activity in % destruction ([2]; 3.13 g ai/ha, 20 DAT, Table 4): 30% | observed activity in % destruction [3]: 35% | observed activity in % destruction ([4]; 6.25 g ai/ha, 20 DAT, Table 4): 60% | observed activity in % destruction [5]: 70% | observed activity in % destruction [6]: 90%

CC(C)N(C)S(=O)(=O)NC(=O)c1cc(-n2c(=O)cc(C(F)(F)F)n(C)c2=O)c(F)cc1Cl [saflufenacil]
observed % activity ([7]; 1.6 g ai/ha, 8 DAT): 0% | observed % activity ([7]; 1.6 g ai/ha, 20 DAT): 0% | observed % activity ([7]; 6.25 g ai/ha, 8 DAT): 20% | observed % activity ([7]; 6.25 g ai/ha, 20 DAT): 0% | observed % activity ([7]; 13 g ai/ha, 8 DAT): 35% | observed % activity ([7]; 13 g ai/ha, 20 DAT): 15% | observed % activity ([8]; 6.25 g ai/ha, 8 DAT): 0% | observed % activity ([8]; 6.25 g ai/ha, 20 DAT): 35% | observed % activity ([8]; 12.5 g ai/ha, 8 DAT): 20% | observed % activity ([8]; 12.5 g ai/ha, 20 DAT): 35% | observed % activity ([9]; 8 DAT): 0% | observed % activity ([9]; 20 DAT): 0% | observed % activity ([10]; 8 DAT): 0% | observed % activity ([10]; 20 DAT): 0% | observed % activity ([11]; 3.1 g ai/ha, 8 DAT): 30% | observed % activity ([11]; 3.1 g ai/ha, 20 DAT): 15% | observed % activity ([11]; 6.25 g ai/ha, 8 DAT): 30% | observed % activity ([11]; 6.25 g ai/ha, 20 DAT): 20% | observed % activity ([2]; 1.6 g ai/ha, 8 DAT): 15% | observed % activity ([2]; 1.6 g ai/ha, 20 DAT): 20% | observed % activity ([2]; 3.1 g ai/ha, 8 DAT): 25% | observed % activity ([2]; 3.1 g ai/ha, 20 DAT): 20% | observed % activity ([2]; 6.25 g ai/ha, 8 DAT): 35% | observed % activity ([2]; 6.25 g ai/ha, 20 DAT): 30% | observed % activity ([2]; 13 g ai/ha, 8 DAT): 80% | observed % activity ([2]; 13 g ai/ha, 20 DAT): 70% | observed % activity ([12]; 8 DAT): 75% | observed % activity ([12]; 20 DAT): 60% | observed % activity ([13]; 8 DAT): 75% | observed % activity ([13]; 20 DAT): 80% | observed % activity ([14]; 8 DAT): 95% | observed % activity ([14]; 20 DAT): 98% | observed % activity ([15]; 8 DAT): 70% | observed % activity ([15]; 20 DAT): 80% | observed % activity ([16]; 1.6 g ai/ha, 8 DAT): 35% | observed % activity ([16]; 1.6 g ai/ha, 20 DAT): 30% | observed % activity ([16]; 13 g ai/ha, 8 DAT): 95% | observed % activity ([16]; 13 g ai/ha, 20 DAT): 98% | observed % activity ([17]; 8 DAT): 30% | observed % activity ([17]; 20 DAT): 30% | observed % activity ([4]; 6.25 g ai/ha, 8 DAT): 35% | observed % activity ([4]; 6.25 g ai/ha, 20 DAT): 35% | observed % activity ([4]; 13 g ai/ha, 8 DAT): 45% | observed % activity ([4]; 13 g ai/ha, 20 DAT): 35% | observed % activity ([18]; 8 DAT): 40% | observed % activity ([18]; 20 DAT): 40% | observed % activity ([19]; 8 DAT): 60% | observed % activity ([19]; 20 DAT): 30% | observed % activity ([20]; 8 DAT): 40% | observed % activity ([20]; 20 DAT): 55% | observed % activity ([21]; 1.6 g ai/ha, 8 DAT): 35% | observed % activity ([21]; 1.6 g ai/ha, 20 DAT): 45% | observed % activity ([21]; 3.1 g ai/ha, 8 DAT): 70% | observed % activity ([21]; 3.1 g ai/ha, 20 DAT): 75% | observed % activity ([21]; 6.25 g ai/ha, 8 DAT): 70% | observed % activity ([21]; 6.25 g ai/ha, 20 DAT): 80% | observed % activity ([22]; 8 DAT): 85% | observed % activity ([22]; 20 DAT): 85% | observed % activity ([23]; 8 DAT): 30% | observed % activity ([23]; 20 DAT): 10% | observed % activity ([24]; 8 DAT): 20% | observed % activity ([24]; 20 DAT): 35% | observed % activity ([25]; 3.13 g ai/ha, 8 DAT): 45% | observed % activity ([25]; 3.13 g ai/ha, 20 DAT): 50% | observed % activity ([25]; 6.25 g ai/ha, 8 DAT): 80% | observed % activity ([25]; 6.25 g ai/ha, 20 DAT): 80% | observed % activity ([26]; 1.6 g ai/ha, 8 DAT): 10% | observed % activity ([26]; 1.6 g ai/ha, 20 DAT): 0% | observed % activity ([26]; 6.25 g ai/ha, 8 DAT): 10% | observed % activity ([26]; 6.25 g ai/ha, 20 DAT): 0% | observed % activity ([26]; 13 g ai/ha, 8 DAT): 15% | observed % activity ([26]; 13 g ai/ha, 20 DAT): 0%
